# Assay results taken from PMC8979682, “Synthesis, Antioxidant, and Antidiabetic Activities of Ketone Derivatives of Succinimide” (Evidence-based Complementary and Alternative Medicine : eCAM, 2022).
# Legend:
# [1] = ABTS scavenging activity; type: biochemical
# Description: For the determination of the antioxidant activity of the synthesized compounds, the previously reported method for ABTS scavenging activity was used with slight modification. The stock solution of 2.4 mM of potassium per sulfate solution and 7 mM ABTS solution was prepared by mixing them in equal volumes for 16 h. The stock solution thus prepared was diluted using methyl alcohol to give absorption of 0.7 ± 0.02 units when studied at the wavelength of 734 nm using a spectrophotometer. Fresh ABTS solution was prepared for each ABTS scavenging assay. About 150 μL of the ABTS working solution was added to 50 μL of synthesized compounds and kept in darkness for 10 min. […] Methanol was used as blank, and standard ascorbic acid was run at the same time. The absorbance was calculated utilizing a microplate reader at 734 nm.
# [2] = DPPH scavenging activity; type: biochemical
# Description: The antioxidant assay of the synthesized compounds was conducted following the previously reported method. A freshly prepared DPPH solution (50 μL of 1.0 × 10^−3 M) was added in methyl alcohol. Methanol was used as a control in this experiment. The prepared mixture was subjected to incubation at 25°C for 30 min. A decrease in the DPPH free radical concentration was calculated using a spectrophotometer at a wavelength of 517 nm. After incubation ascorbic acid was used as a positive control. The antioxidant activity was determined as a percent (%) of inhibition using the formula given:(1) percent inhibition=absorbancecontrol−absorbancesample/absorbancecontrol×100.
# [3] = target: α-glucosidase; experiment: in vitro α-glucosidase inhibition; type: biochemical
# Description: For in vitro α-glucosidase activity, samples were prepared by adding glucopyranoside to phosphate buffer solvent, and different concentrations of the synthesized compounds (31.25, 62.5, 125, 250, and 500 µg/ml), respectively, were added to this solution and then the enzyme glucosidase in distilled water (0.5 µg/ml) was also added to the above mixture. The reaction mixture thus prepared was subjected to incubation at 37°C for 20 minutes. The reaction was halted by adding HCl after incubation of the mixture. The intensity of the color was determined at 540 nm by spectrophotometer, and the formula given below was used for the determination of percent inhibition:(2) percent inhibition=absorbancecontrol−absorbancesample/absorbancecontrol×100.
# [4] = target: α-amylase; experiment: in vitro α-amylase inhibition; type: biochemical
# Description: The starch solution was added, following incubation of the mixture, and the reaction mixture thus prepared was kept in water bath at 100°C for some time. Microplate reader measured the intensity of the color at 656 nm. Following formula was used to determine percentage inhibition:(3) percent inhibition=absorbancecontrol−absorbancesample/absorbancecontrol×100.
# [5] = system: diabetic mice (by alloxan); experiment: antidiabetic activity in diabetic mice (by alloxan); type: in vivo
# Description: Alloxan was used for the induction of diabetes mellitus according to reported procedure. Recently prepared Alloxan (ALX) was injected intraperitoneally to animals, fasting for 16 h, at a single dose of (150 mg/kg). […] Only diabetic animals, having random blood glucose level more than 200 mg/dl, were selected for studies. All the experimental procedure were approved from the ethical committee department of pharmacy, University of Swabi via letter No; UOS-06/2021.
# A total of 30 animals were used to determine the hypoglycemic effect of the synthesized derivatives of succinimide. The experimental animals were segregated in six groups […], having five (5) animals in each group. Group I was designated as normal group and was given normal saline I/P only. Group II was given Tween 80, and Group III was given standard drug (glibenclamide) after the induction of diabetes. Group IV, Group V, and Group VI were given the various doses of synthesized compounds, respectively. […]
# [6] = system: mice; experiment: oral glucose tolerance test (OGTT); type: in vivo; details: glucose 2 g/kg orally
# Description: To perform OGTT mice fasted overnight were used including both control and treated mice. Glucose was administered orally at the dose of 2 g/kg against glibenclamide as standard drug. After administration of glucose, blood glucose level was calculated at time intervals of 0, 30, 60, and 120 min for assessment of the impact of exogenously given D-glucose on treated mice. OGTT was carried out 5 days before the completion of the study.
# To perform OGTT, mice fasted overnight were used including both control and treated mice. Glucose was administered orally at the dose of 2 g/kg against glibenclamide as a standard drug. After administration of glucose, blood glucose level was calculated at time intervals of 0, 30, 60, and 120 min for assessment of the impact of exogenously given D-glucose on treated mice.
smiles,measurement,setting,value
"O=C1CCCCC1C1CC(=O)N(c2ccc(Br)cc2)C1=O (stereo not drawn) [BW3, (4-Bromophenyl)-3-(2-Oxocyclohexyl) Pyrrolidine-2,5-Dione]",IC50 (ABTS),[1],36.82 µg/mL
same,(%) ABTS inhibitions,[1]; 31.25 µg/ml,48.42 ± 0.43^ns %
same,(%) ABTS inhibitions,[1]; 62.50 µg/ml,53.33 ± 0.66^∗ %
same,(%) ABTS inhibitions,[1]; 125 µg/ml,58.40 ± 0.82^∗∗∗ %
same,(%) ABTS inhibitions,[1]; 250 µg/ml,64.90 ± 0.45^∗∗∗ %
same,(%) ABTS inhibitions,[1]; 500 µg/ml,70.56 ± 1.06^∗∗∗ %
same,IC50 (DPPH),[2],15.93 µg/mL
same,(%) DPPH inhibitions,[2]; 31.25 µg/ml,57.69 ± 0.77^∗∗∗ %
same,(%) DPPH inhibitions,[2]; 62.50 µg/ml,66.67 ± 0.61^∗∗∗ %
same,(%) DPPH inhibitions,[2]; 125 µg/ml,71.79 ± 0.63^∗∗ %
same,(%) DPPH inhibitions,[2]; 250 µg/ml,76.90 ± 0.48^∗ %
same,(%) DPPH inhibitions,[2]; 500 µg/ml,83.03 ± 0.48^∗ %
same,IC50 (α-glucosidase),[3],12.15 µg/mL
same,% inhibitions (α-glucosidase),[3]; 31.25 µg/ml,57.47 ± 0.56^∗∗∗ %
same,% inhibitions (α-glucosidase),[3]; 62.50 µg/ml,63.28 ± 0.57^∗∗∗ %
same,% inhibitions (α-glucosidase),[3]; 125 µg/ml,67.90 ± 0.96^∗∗∗ %
same,% inhibitions (α-glucosidase),[3]; 250 µg/ml,72.08 ± 0.47^∗∗∗ %
same,% inhibitions (α-glucosidase),[3]; 500 µg/ml,77.85 ± 2.24^∗∗∗ %
same,IC50 (α-amylase),[4],18.20 µg/mL
same,% inhibitions (α-amylase),[4]; 31.25 µg/ml,54.67 ± 0.35^∗∗∗ %
same,% inhibitions (α-amylase),[4]; 62.50 µg/ml,62.16 ± 0.12^∗∗∗ %
same,% inhibitions (α-amylase),[4]; 125 µg/ml,67.62 ± 0.03^∗∗∗ %
same,% inhibitions (α-amylase),[4]; 250 µg/ml,71.36 ± 1.15^∗∗∗ %
same,% inhibitions (α-amylase),[4]; 500 µg/ml,75.35 ± 0.89^∗∗∗ %
same,Change in body weight,[5]; dose 31.25 μg/kg,−8.4 Gm
same,Decrease in blood glucose after 15 days,[5]; dose 31.25 μg/kg,-39 mg/dL
same,"Blood glucose level, 0 day",[5]; dose 31.25 μg/kg,439 mg/dL
same,"Blood glucose level, 4th day",[5]; dose 31.25 μg/kg,446 mg/dL
same,"Blood glucose level, 7th day",[5]; dose 31.25 μg/kg,457 mg/dL
same,"Blood glucose level, 10th day",[5]; dose 31.25 μg/kg,468 mg/dL
same,"Blood glucose level, 15th day",[5]; dose 31.25 μg/kg,478 mg/dL
same,Change in body weight,[5]; dose 62.5 μg/kg,−6.2 Gm
same,Decrease in blood glucose after 15 days,[5]; dose 62.5 μg/kg,-56 mg/dL
same,"Blood glucose level, 0 day",[5]; dose 62.5 μg/kg,443 mg/dL
same,"Blood glucose level, 4th day",[5]; dose 62.5 μg/kg,465 mg/dL
same,"Blood glucose level, 7th day",[5]; dose 62.5 μg/kg,478 mg/dL
same,"Blood glucose level, 10th day",[5]; dose 62.5 μg/kg,493 mg/dL
same,"Blood glucose level, 15th day",[5]; dose 62.5 μg/kg,499 mg/dL
same,Change in body weight,[5]; dose 125 μg/kg,+5.3 Gm
same,Decrease in blood glucose after 15 days,[5]; dose 125 μg/kg,-29 mg/dL
same,"Blood glucose level, 0 day",[5]; dose 125 μg/kg,387 mg/dL
same,"Blood glucose level, 4th day",[5]; dose 125 μg/kg,437 mg/dL
same,"Blood glucose level, 7th day",[5]; dose 125 μg/kg,430 mg/dL
same,"Blood glucose level, 10th day",[5]; dose 125 μg/kg,424 mg/dL
same,"Blood glucose level, 15th day",[5]; dose 125 μg/kg,416 mg/dL
same,Change in body weight,[5]; dose 250 μg/kg,−5.1 Gm
same,Decrease in blood glucose after 15 days,[5]; dose 250 μg/kg,35 mg/dL
same,"Blood glucose level, 0 day",[5]; dose 250 μg/kg,431 mg/dL
same,"Blood glucose level, 4th day",[5]; dose 250 μg/kg,419 mg/dL
same,"Blood glucose level, 7th day",[5]; dose 250 μg/kg,411 mg/dL
same,"Blood glucose level, 10th day",[5]; dose 250 μg/kg,403 mg/dL
same,"Blood glucose level, 15th day",[5]; dose 250 μg/kg,396 mg/dL
same,Change in body weight,[5]; dose 500 μg/kg,+2.5 Gm
same,Decrease in blood glucose after 15 days,[5]; dose 500 μg/kg,49 mg/dL
same,"Blood glucose level, 0 day",[5]; dose 500 μg/kg,430 mg/dL
same,"Blood glucose level, 4th day",[5]; dose 500 μg/kg,420 mg/dL
same,"Blood glucose level, 7th day",[5]; dose 500 μg/kg,401 mg/dL
same,"Blood glucose level, 10th day",[5]; dose 500 μg/kg,387 mg/dL
same,"Blood glucose level, 15th day",[5]; dose 500 μg/kg,381 mg/dL
same,"OGTT blood glucose, 0 minutes",[6]; 0 minutes,156.2 mg/dL
same,"OGTT blood glucose, 30 minutes",[6]; 30 minutes,174.1 mg/dL
same,"OGTT blood glucose, 60 minutes",[6]; 60 minutes,196.3 mg/dL
same,"OGTT blood glucose, 120 minutes",[6]; 120 minutes,145.4 mg/dL
